# Measured values as given in PubChem BioAssay AID2060912 (Molecular Pharmacology Branch, DTP, NCI, 2025).
# System: HUVEC/MSC spheroids viability
# Experiment: Human HUVEC/MSC cell line growth inhibition [KRAS2];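 on viability, T/C: percent of DMSO vehicle control luminescence so 100% = untreated viability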
# Conditions: for IC50: curve of first compound; for viability, T/C: stronger effect = lower value
# Outline: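 HUVEC + hMSC stromal spheroids only, no malignant cells; 37 °C, 5% CO2. Drugs singly and in pairs, half-log series down from clinical Cmax (max 10 microM if Cmax undetermined).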
# [1] = second compound 0.0316 µM, first compound 0.0316 µM
# [2] = second compound 0.0316 µM, first compound 0.1 µM
# [3] = second compound 0.0316 µM, first compound 0.316 µM
# [4] = second compound 0.0316 µM, first compound 1 µM
# [5] = second compound 0.0316 µM, first compound 3.16 µM
# [6] = second compound 0.0316 µM, first compound 10 µM
# [7] = second compound 0.1 µM, first compound 0.0316 µM
# [8] = second compound 0.1 µM, first compound 0.1 µM
# [9] = second compound 0.1 µM, first compound 0.316 µM
# [10] = second compound 0.1 µM, first compound 1 µM
# [11] = second compound 0.1 µM, first compound 3.16 µM
# [12] = second compound 0.1 µM, first compound 10 µM
# [13] = second compound 0.316 µM, first compound 0.0316 µM
# [14] = second compound 0.316 µM, first compound 0.1 µM
# [15] = second compound 0.316 µM, first compound 0.316 µM
# [16] = second compound 0.316 µM, first compound 1 µM
# [17] = second compound 0.316 µM, first compound 3.16 µM
# [18] = second compound 0.316 µM, first compound 10 µM
# [19] = second compound 1 µM, first compound 0.0316 µM
# [20] = second compound 1 µM, first compound 0.1 µM
# [21] = second compound 1 µM, first compound 0.316 µM
# [22] = second compound 1 µM, first compound 1 µM
# [23] = second compound 1 µM, first compound 3.16 µM
# [24] = second compound 1 µM, first compound 10 µM
# [25] = second compound 3.16 µM, first compound 0.0316 µM
# [26] = second compound 3.16 µM, first compound 0.1 µM
# [27] = second compound 3.16 µM, first compound 0.316 µM
# [28] = second compound 3.16 µM, first compound 1 µM
# [29] = second compound 3.16 µM, first compound 3.16 µM
# [30] = second compound 3.16 µM, first compound 10 µM
# [31] = second compound 10 µM, first compound 0.0316 µM
# [32] = second compound 10 µM, first compound 0.1 µM
# [33] = second compound 10 µM, first compound 0.316 µM
# [34] = second compound 10 µM, first compound 1 µM
# [35] = second compound 10 µM, first compound 3.16 µM
# [36] = second compound 10 µM, first compound 10 µM
structure (smiles),measurement,setting,value
CC(=O)Nc1cccc(-n2c(=O)n(C3CC3)c(=O)c3c(Nc4ccc(I)cc4F)n(C)c(=O)c(C)c32)c1 + CNCc1ccccc1-c1csc(C(C)Nc2nc(C)nc3cc(OC)c(OC)cc23)c1,IC50,second compound 0.0316 µM,0.0125 µM
same,IC50,second compound 0.1 µM,0.0121 µM
same,IC50,second compound 0.316 µM,0.0132 µM
same,IC50,second compound 1 µM,0.0131 µM
same,IC50,second compound 3.16 µM,0.0132 µM
same,IC50,second compound 10 µM,< 9.49e-05 µM
same,"viability, T/C","second compound 0.0316 µM, first compound 94.9 pM",101%
same,"viability, T/C","second compound 0.0316 µM, first compound 0.0003 µM",130%
same,"viability, T/C","second compound 0.0316 µM, first compound 0.000949 µM",113%
same,"viability, T/C","second compound 0.0316 µM, first compound 0.003 µM",83.6%
same,"viability, T/C","second compound 0.0316 µM, first compound 0.00949 µM",66.7%
same,"viability, T/C","second compound 0.0316 µM, first compound 0.03 µM",9.37%
same,"viability, T/C","second compound 0.1 µM, first compound 94.9 pM",102%
same,"viability, T/C","second compound 0.1 µM, first compound 0.0003 µM",109%
same,"viability, T/C","second compound 0.1 µM, first compound 0.000949 µM",95.5%
same,"viability, T/C","second compound 0.1 µM, first compound 0.003 µM",75.7%
same,"viability, T/C","second compound 0.1 µM, first compound 0.00949 µM",67%
same,"viability, T/C","second compound 0.1 µM, first compound 0.03 µM",9.94%
same,"viability, T/C","second compound 0.316 µM, first compound 94.9 pM",93.6%
same,"viability, T/C","second compound 0.316 µM, first compound 0.0003 µM",99.6%
same,"viability, T/C","second compound 0.316 µM, first compound 0.000949 µM",101%
same,"viability, T/C","second compound 0.316 µM, first compound 0.003 µM",85.9%
same,"viability, T/C","second compound 0.316 µM, first compound 0.00949 µM",65.4%
same,"viability, T/C","second compound 0.316 µM, first compound 0.03 µM",13.4%
same,"viability, T/C","second compound 1 µM, first compound 94.9 pM",86.5%
same,"viability, T/C","second compound 1 µM, first compound 0.0003 µM",103%
same,"viability, T/C","second compound 1 µM, first compound 0.000949 µM",92.2%
same,"viability, T/C","second compound 1 µM, first compound 0.003 µM",84.6%
same,"viability, T/C","second compound 1 µM, first compound 0.00949 µM",67.2%
same,"viability, T/C","second compound 1 µM, first compound 0.03 µM",7.22%
same,"viability, T/C","second compound 3.16 µM, first compound 94.9 pM",84.5%
same,"viability, T/C","second compound 3.16 µM, first compound 0.0003 µM",132%
same,"viability, T/C","second compound 3.16 µM, first compound 0.000949 µM",103%
same,"viability, T/C","second compound 3.16 µM, first compound 0.003 µM",103%
same,"viability, T/C","second compound 3.16 µM, first compound 0.00949 µM",70.2%
same,"viability, T/C","second compound 3.16 µM, first compound 0.03 µM",0.49%
same,"viability, T/C","second compound 10 µM, first compound 94.9 pM",0.38%
same,"viability, T/C","second compound 10 µM, first compound 0.0003 µM",0.41%
same,"viability, T/C","second compound 10 µM, first compound 0.000949 µM",0.37%
same,"viability, T/C","second compound 10 µM, first compound 0.003 µM",0.33%
same,"viability, T/C","second compound 10 µM, first compound 0.00949 µM",0.36%
same,"viability, T/C","second compound 10 µM, first compound 0.03 µM",0.28%
COc1cc(Nc2ncc3c(n2)-c2ccc(Cl)cc2C(c2c(F)cccc2OC)=NC3)ccc1C(=O)O + CNCc1ccccc1-c1csc(C(C)Nc2nc(C)nc3cc(OC)c(OC)cc23)c1,IC50,second compound 0.0316 µM,9.93 µM
same,IC50,second compound 0.1 µM,> 10 µM
same,IC50,second compound 0.316 µM,8.79 µM
same,IC50,second compound 1 µM,9.31 µM
same,IC50,second compound 3.16 µM,> 10 µM
same,IC50,second compound 10 µM,< 0.0316 µM
same,"viability, T/C",[1],92.9%
same,"viability, T/C",[2],104%
same,"viability, T/C",[3],101%
same,"viability, T/C",[4],87.3%
same,"viability, T/C",[5],84.6%
same,"viability, T/C",[6],49.2%
same,"viability, T/C",[7],93.2%
same,"viability, T/C",[8],80.8%
same,"viability, T/C",[9],98%
same,"viability, T/C",[10],80.3%
same,"viability, T/C",[11],84%
same,"viability, T/C",[12],56.7%
same,"viability, T/C",[13],71.1%
same,"viability, T/C",[14],90.8%
same,"viability, T/C",[15],79.5%
same,"viability, T/C",[16],73.3%
same,"viability, T/C",[17],83.7%
same,"viability, T/C",[18],46.3%
same,"viability, T/C",[19],75.5%
same,"viability, T/C",[20],76.6%
same,"viability, T/C",[21],97.3%
same,"viability, T/C",[22],74.5%
same,"viability, T/C",[23],92.4%
same,"viability, T/C",[24],47.8%
same,"viability, T/C",[25],101%
same,"viability, T/C",[26],106%
same,"viability, T/C",[27],97.8%
same,"viability, T/C",[28],90.4%
same,"viability, T/C",[29],100%
same,"viability, T/C",[30],50.7%
same,"viability, T/C",[31],0.4%
same,"viability, T/C",[32],0.4%
same,"viability, T/C",[33],0.37%
same,"viability, T/C",[34],0.36%
same,"viability, T/C",[35],0.41%
same,"viability, T/C",[36],0.32%
COc1cc2nccc(Oc3ccc(NC(=O)C4(C(=O)Nc5ccc(F)cc5)CC4)cc3)c2cc1OC + CNCc1ccccc1-c1csc(C(C)Nc2nc(C)nc3cc(OC)c(OC)cc23)c1,IC50,second compound 0.0316 µM,5.9 µM
same,IC50,second compound 0.1 µM,5.67 µM
same,IC50,second compound 0.316 µM,6.1 µM
same,IC50,second compound 1 µM,4.98 µM
same,IC50,second compound 3.16 µM,1.84 µM
same,IC50,second compound 10 µM,< 0.0316 µM
same,"viability, T/C",[1],87.7%
same,"viability, T/C",[2],86.5%
same,"viability, T/C",[3],78.2%
same,"viability, T/C",[4],65.8%
same,"viability, T/C",[5],84.2%
same,"viability, T/C",[6],24.3%
same,"viability, T/C",[7],67%
same,"viability, T/C",[8],88.8%
same,"viability, T/C",[9],87%
same,"viability, T/C",[10],81%
same,"viability, T/C",[11],78.2%
same,"viability, T/C",[12],22.7%
same,"viability, T/C",[13],86.6%
same,"viability, T/C",[14],90.9%
same,"viability, T/C",[15],72%
same,"viability, T/C",[16],71.2%
same,"viability, T/C",[17],81.4%
same,"viability, T/C",[18],27.1%
same,"viability, T/C",[19],69.6%
same,"viability, T/C",[20],67.3%
same,"viability, T/C",[21],66.6%
same,"viability, T/C",[22],97.6%
same,"viability, T/C",[23],99.7%
same,"viability, T/C",[24],3.5%
same,"viability, T/C",[25],96.7%
same,"viability, T/C",[26],104%
same,"viability, T/C",[27],108%
same,"viability, T/C",[28],115%
same,"viability, T/C",[29],0.31%
same,"viability, T/C",[30],0.22%
same,"viability, T/C",[31],0.36%
same,"viability, T/C",[32],0.41%
same,"viability, T/C",[33],0.99%
same,"viability, T/C",[34],0.46%
same,"viability, T/C",[35],0.43%
same,"viability, T/C",[36],0.25%
